In US10670605B2, “Cysteine reactive probes and uses thereof” (The Scripps Research Institute, priority 2015, dated 2020):

Tests used:
Assay in all cases: Competitive isoTOP-ABPP, cell lysates
Type in all cases: binding
USP22 C171 (Q9UPT9) = molecular target: T1, USP22 C171 (Q9UPT9) (Homo sapiens, UniProt Q9UPT9)
T1 sequence (Q9UPT9 1-525): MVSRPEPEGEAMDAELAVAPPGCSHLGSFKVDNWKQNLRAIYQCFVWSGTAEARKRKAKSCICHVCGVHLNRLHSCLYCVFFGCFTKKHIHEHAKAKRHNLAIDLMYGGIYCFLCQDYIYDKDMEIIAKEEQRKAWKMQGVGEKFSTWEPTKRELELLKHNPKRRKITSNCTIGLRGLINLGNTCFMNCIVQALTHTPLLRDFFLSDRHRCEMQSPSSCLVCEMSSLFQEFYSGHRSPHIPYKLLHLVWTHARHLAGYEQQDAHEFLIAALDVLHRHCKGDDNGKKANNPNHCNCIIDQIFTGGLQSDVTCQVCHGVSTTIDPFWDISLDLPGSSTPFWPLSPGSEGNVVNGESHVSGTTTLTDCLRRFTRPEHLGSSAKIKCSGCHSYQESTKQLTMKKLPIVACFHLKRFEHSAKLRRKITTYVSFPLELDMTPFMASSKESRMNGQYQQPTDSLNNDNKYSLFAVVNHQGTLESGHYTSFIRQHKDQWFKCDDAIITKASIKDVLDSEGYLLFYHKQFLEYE

SMARCC2 C145 (Q8TAQ2) = SMARCC2 C145 (Q8TAQ2) (Homo sapiens, UniProt Q8TAQ2)
SMARCC2 C145 (Q8TAQ2), sequence (Q8TAQ2 whole entry): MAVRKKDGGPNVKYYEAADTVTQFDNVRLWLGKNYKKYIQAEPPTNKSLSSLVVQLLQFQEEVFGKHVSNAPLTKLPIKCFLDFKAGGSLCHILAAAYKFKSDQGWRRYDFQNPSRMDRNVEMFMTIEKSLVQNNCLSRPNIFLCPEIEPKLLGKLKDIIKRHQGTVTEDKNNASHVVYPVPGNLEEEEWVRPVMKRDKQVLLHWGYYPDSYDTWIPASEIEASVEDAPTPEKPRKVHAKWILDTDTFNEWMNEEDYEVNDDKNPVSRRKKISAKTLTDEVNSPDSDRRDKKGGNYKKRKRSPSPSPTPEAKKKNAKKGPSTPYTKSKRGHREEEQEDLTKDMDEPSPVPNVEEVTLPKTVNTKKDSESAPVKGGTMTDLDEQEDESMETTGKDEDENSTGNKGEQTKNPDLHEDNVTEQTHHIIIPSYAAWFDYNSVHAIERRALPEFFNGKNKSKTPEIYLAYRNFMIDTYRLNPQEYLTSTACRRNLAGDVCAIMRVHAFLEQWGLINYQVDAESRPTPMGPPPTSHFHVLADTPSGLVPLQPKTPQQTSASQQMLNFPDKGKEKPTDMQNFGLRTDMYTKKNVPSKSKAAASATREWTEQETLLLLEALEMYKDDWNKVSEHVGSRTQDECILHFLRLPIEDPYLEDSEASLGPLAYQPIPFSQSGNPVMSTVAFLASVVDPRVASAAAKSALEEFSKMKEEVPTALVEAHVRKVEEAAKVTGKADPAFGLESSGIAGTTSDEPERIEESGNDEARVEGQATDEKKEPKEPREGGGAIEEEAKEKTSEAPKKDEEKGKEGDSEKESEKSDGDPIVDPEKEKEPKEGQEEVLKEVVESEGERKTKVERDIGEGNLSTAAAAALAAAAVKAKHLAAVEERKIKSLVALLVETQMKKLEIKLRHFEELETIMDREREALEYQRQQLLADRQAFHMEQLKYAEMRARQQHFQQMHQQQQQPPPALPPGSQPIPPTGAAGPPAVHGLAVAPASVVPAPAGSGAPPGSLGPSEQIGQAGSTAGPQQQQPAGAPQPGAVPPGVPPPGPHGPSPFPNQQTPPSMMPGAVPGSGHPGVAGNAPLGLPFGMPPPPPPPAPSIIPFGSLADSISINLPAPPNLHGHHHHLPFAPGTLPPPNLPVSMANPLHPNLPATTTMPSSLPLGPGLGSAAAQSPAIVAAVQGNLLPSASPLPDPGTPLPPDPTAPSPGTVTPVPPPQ

CASP8 C360 (Q14790) = CASP8 C360 (Q14790) (Homo sapiens, UniProt Q14790)
CASP8 C360 (Q14790), sequence (Q14790 whole entry, the tested form may be a part): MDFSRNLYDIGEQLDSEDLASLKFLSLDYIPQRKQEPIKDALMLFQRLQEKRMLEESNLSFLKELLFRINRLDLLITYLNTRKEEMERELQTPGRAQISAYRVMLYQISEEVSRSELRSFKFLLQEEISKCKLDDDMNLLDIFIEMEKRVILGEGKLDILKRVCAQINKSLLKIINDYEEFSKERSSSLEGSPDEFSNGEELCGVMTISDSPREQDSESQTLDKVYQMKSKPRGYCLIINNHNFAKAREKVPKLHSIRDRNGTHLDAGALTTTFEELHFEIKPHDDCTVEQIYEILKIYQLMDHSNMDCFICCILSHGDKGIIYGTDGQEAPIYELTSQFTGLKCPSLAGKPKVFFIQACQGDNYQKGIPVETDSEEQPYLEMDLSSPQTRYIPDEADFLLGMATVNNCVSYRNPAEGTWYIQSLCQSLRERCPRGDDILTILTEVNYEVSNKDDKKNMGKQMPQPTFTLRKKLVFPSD

ACAT1 C196 (P24752) = molecular target: T2, ACAT1 C196 (P24752) (Homo sapiens, UniProt P24752); details: for R value (DMSO/fragment) / isoTOP-ABPP ratio, P24752_C196: 500 μM; for isoTOP-ABPP reactivity ratio, P24752_C196 / isoTOP-ABPP reactivity profile ratio, P24752_C196: 500 μm
T2 sequence (P24752 34-427): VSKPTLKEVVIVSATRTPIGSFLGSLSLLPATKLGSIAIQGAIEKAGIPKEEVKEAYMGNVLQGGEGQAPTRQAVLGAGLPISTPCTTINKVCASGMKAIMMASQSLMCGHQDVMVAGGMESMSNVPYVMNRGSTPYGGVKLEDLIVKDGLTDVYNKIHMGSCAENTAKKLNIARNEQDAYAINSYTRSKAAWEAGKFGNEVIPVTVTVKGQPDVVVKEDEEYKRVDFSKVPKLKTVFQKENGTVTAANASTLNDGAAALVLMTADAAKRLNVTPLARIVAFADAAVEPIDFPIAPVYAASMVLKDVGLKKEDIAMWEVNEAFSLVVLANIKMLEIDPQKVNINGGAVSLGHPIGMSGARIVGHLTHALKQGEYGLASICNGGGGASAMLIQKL

ACAT1 C126 (P24752) = molecular target: T3, ACAT1 C126 (P24752) (Homo sapiens, UniProt P24752); details: for isoTOP-ABPP ratio, P24752_C126: invitro
T3 sequence (P24752 34-427): T2 sequence (P24752 34-427)

ACAT1 C413 (P24752) = molecular target: T4, ACAT1 C413 (P24752) (Homo sapiens, UniProt P24752); details: for isoTOP-ABPP ratio P24752_C413: invitro
T4 sequence (P24752 34-427): T2 sequence (P24752 34-427)

ACAT1 C119 (P24752) = molecular target: T5, ACAT1 C119 (P24752) (Homo sapiens, UniProt P24752); details: for R value (DMSO/fragment) / isoTOP-ABPP ratio P24752_C119: 500 μM; for isoTOP-ABPP reactivity ratio, P24752_C119 / isoTOP-ABPP reactivity profile ratio, P24752_C119: 500 μm
T5 sequence (P24752 34-427): T2 sequence (P24752 34-427)

IRF4 C194 (Q15306) = molecular target: T6, IRF4 C194 (Q15306) (Homo sapiens, UniProt Q15306)
T6 sequence (Q15306 1-451): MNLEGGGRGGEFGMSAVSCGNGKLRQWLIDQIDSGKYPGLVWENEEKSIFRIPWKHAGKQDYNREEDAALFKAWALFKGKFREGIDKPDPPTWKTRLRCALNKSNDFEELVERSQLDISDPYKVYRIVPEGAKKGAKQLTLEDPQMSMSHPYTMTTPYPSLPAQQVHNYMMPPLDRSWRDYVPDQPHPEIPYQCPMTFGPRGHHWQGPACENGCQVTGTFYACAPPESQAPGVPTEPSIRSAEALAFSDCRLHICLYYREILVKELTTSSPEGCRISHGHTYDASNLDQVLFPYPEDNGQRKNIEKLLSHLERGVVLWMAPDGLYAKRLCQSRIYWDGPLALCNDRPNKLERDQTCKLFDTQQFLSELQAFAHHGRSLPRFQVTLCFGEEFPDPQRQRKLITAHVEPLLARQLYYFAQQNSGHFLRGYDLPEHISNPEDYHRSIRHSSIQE

For `COc1ccc2c(c1)CCCN2C(=O)CCl` [compound 2], the “R value (DMSO/fragment)” value (USP22 C171 (Q9UPT9); 500 μM, invitro, ramos) was 7.1, the “R value (DMSO/fragment)” value (SMARCC2 C145 (Q8TAQ2); 500 μM, in vitro, MDA-MB-231) was 8.5 and the “R value (DMSO/fragment)” value (SMARCC2 C145 (Q8TAQ2); 500 μM, invitro, ramos) was 14.0. For the same molecule, the “R value (DMSO/fragment)” value (CASP8 C360 (Q14790); 500 μM, in vitro, MDA-MB-231) was 9.8, the “R value (DMSO/fragment)” value (ACAT1 C196 (P24752); in vitro, MDA-MB-231) was 12.4 and the “R value (DMSO/fragment)” value (ACAT1 C196 (P24752); invitro, ramos) was 9.3. The “R value (DMSO/fragment)” value (ACAT1 C126 (P24752); 500 μM, in vitro, MDA-MB-231) was 20.0, the “R value (DMSO/fragment)” value (ACAT1 C413 (P24752); 500 μM, in vitro, MDA-MB-231) was 18.1 and the “R value (DMSO/fragment)” value (ACAT1 C119 (P24752); in vitro, MDA-MB-231) was 3.9. For the same molecule, the “R value (DMSO/fragment)” value (ACAT1 C119 (P24752); invitro, ramos) was 3.2.

For `O=C(CCl)NCCc1c[nH]c2ccccc12` [compound 13], the “isoTOP-ABPP ratio, Q9UPT9_C171” value (USP22 C171 (Q9UPT9); 500 μM, invitro, ramos) was 0.8, the “isoTOP-ABPP ratio Q8TAQ2_C145” value (SMARCC2 C145 (Q8TAQ2); 500 μM, invitro, ramos) was 0.8 and the “isoTOP-ABPP ratio, Q15306_C194” value (IRF4 C194 (Q15306); 500 μM, invitro, ramos) was 1.1. For the same molecule, the “isoTOP-ABPP ratio, P24752_C196” value (ACAT1 C196 (P24752); invitro, 231) was 1.6, the “isoTOP-ABPP ratio, P24752_C196” value (ACAT1 C196 (P24752); invitro, ramos) was 1.7 and the “isoTOP-ABPP ratio, P24752_C126” value (ACAT1 C126 (P24752); 500 μM, 231) was 9.6. The “isoTOP-ABPP ratio, P24752_C126” value (ACAT1 C126 (P24752); 500 μM, ramos) was 20.0, the “isoTOP-ABPP ratio P24752_C413” value (ACAT1 C413 (P24752); 500 μM, 231) was 5.5 and the “isoTOP-ABPP ratio P24752_C413” value (ACAT1 C413 (P24752); 500 μM, ramos) was 7.3. The “isoTOP-ABPP ratio P24752_C119” value (ACAT1 C119 (P24752); invitro, 231) was 1.2 and the “isoTOP-ABPP ratio P24752_C119” value (ACAT1 C119 (P24752); invitro, ramos) was 0.6.

With `CC(C)(C)c1cc(NC(=O)CCl)on1` [compound 32] the “isoTOP-ABPP reactivity ratio, Q9UPT9_C171” value (USP22 C171 (Q9UPT9); 500 μm, in-vitro_ramos) was 9.3, the “isoTOP-ABPP reactivity ratio, Q8TAQ2_C145” value (SMARCC2 C145 (Q8TAQ2); 500 μm, in-vitro_ramos) was 20.0 and the “isoTOP-ABPP reactivity ratio, Q8TAQ2_C145” value (SMARCC2 C145 (Q8TAQ2); 500 μm, in-vitro_ramos_231) was 20.0. The “isoTOP-ABPP reactivity ratio, Q15306_C194” value (IRF4 C194 (Q15306); 500 μm, in-vitro_ramos) was 3.7, the “isoTOP-ABPP reactivity ratio, P24752_C196” value (ACAT1 C196 (P24752); in-vitro_ramos) was 2.0 and the “isoTOP-ABPP reactivity ratio, P24752_C196” value (ACAT1 C196 (P24752); in-vitro_ramos_231) was 2.3. The “isoTOP-ABPP reactivity ratio, P24752_C126” value (ACAT1 C126 (P24752); 500 μm, in-vitro_ramos) was 8.6, the “isoTOP-ABPP reactivity ratio, P24752_C126” value (ACAT1 C126 (P24752); 500 μm, in-vitro_ramos_231) was 7.3 and the “isoTOP-ABPP reactivity ratio, P24752_C413” value (ACAT1 C413 (P24752); 500 μm, in-vitro_ramos) was 4.1. For the same molecule, the “isoTOP-ABPP reactivity ratio, P24752_C413” value (ACAT1 C413 (P24752); 500 μm, in-vitro_ramos_231) was 6.8, the “isoTOP-ABPP reactivity ratio, P24752_C119” value (ACAT1 C119 (P24752); in-vitro_ramos) was 1.3 and the “isoTOP-ABPP reactivity ratio, P24752_C119” value (ACAT1 C119 (P24752); in-vitro_ramos_231) was 1.7.

In the case of `COc1cc(NC(=O)CCl)cc(OC)c1` [compound 43], the “isoTOP-ABPP reactivity profile ratio, Q9UPT9_C171” value (USP22 C171 (Q9UPT9); 500 μm, in-vitro_ramos) is reported as 4.5, the “isoTOP-ABPP reactivity profile ratio, Q8TAQ2_C145” value (SMARCC2 C145 (Q8TAQ2); 500 μm, in-vitro_ramos_231) is reported as 20.0 and the “isoTOP-ABPP reactivity profile ratio, Q15306_C194” value (IRF4 C194 (Q15306); 500 μm, in-vitro_ramos) is reported as 3.0. The “isoTOP-ABPP reactivity profile ratio, P24752_C196” value (ACAT1 C196 (P24752); in-vitro_ramos) was 2.3, the “isoTOP-ABPP reactivity profile ratio, P24752_C196” value (ACAT1 C196 (P24752); in-vitro_ramos_231) was 2.4 and the “isoTOP-ABPP reactivity profile ratio, P24752_C126” value (ACAT1 C126 (P24752); 500 μm, in-vitro_ramos) was 20.0. For the same molecule, the “isoTOP-ABPP reactivity profile ratio, P24752_C413” value (ACAT1 C413 (P24752); 500 μm, in-vitro_ramos_231) was 15.9, the “isoTOP-ABPP reactivity profile ratio, P24752_C119” value (ACAT1 C119 (P24752); in-vitro_ramos) was 1.1 and the “isoTOP-ABPP reactivity profile ratio, P24752_C119” value (ACAT1 C119 (P24752); in-vitro_ramos_231) was 1.8.

For `C=CC(=O)N(Cc1cccnc1)c1cc(C(F)(F)F)cc(C(F)(F)F)c1` [compound 31], the “isoTOP-ABPP reactivity ratio, Q9UPT9_C171” value (USP22 C171 (Q9UPT9); 500 μm, in-vitro_ramos_231) was 2.1, the “isoTOP-ABPP reactivity ratio, Q8TAQ2_C145” value (SMARCC2 C145 (Q8TAQ2); 500 μm, in-vitro_ramos) was 0.9 and the “isoTOP-ABPP reactivity ratio, Q8TAQ2_C145” value (SMARCC2 C145 (Q8TAQ2); 500 μm, in-vitro_ramos_231) was 1.1. The “isoTOP-ABPP reactivity ratio, Q15306_C194” value (IRF4 C194 (Q15306); 500 μm, in-vitro_ramos) was 1.1, the “isoTOP-ABPP reactivity ratio, P24752_C196” value (ACAT1 C196 (P24752); in-vitro_ramos) was 0.9 and the “isoTOP-ABPP reactivity ratio, P24752_C196” value (ACAT1 C196 (P24752); in-vitro_ramos_231) was 1.2. For the same molecule, the “isoTOP-ABPP reactivity ratio, P24752_C126” value (ACAT1 C126 (P24752); 500 μm, in-vitro_ramos_231) was 1.1, the “isoTOP-ABPP reactivity ratio, P24752_C413” value (ACAT1 C413 (P24752); 500 μm, in-vitro_ramos) was 1.0 and the “isoTOP-ABPP reactivity ratio, P24752_C413” value (ACAT1 C413 (P24752); 500 μm, in-vitro_ramos_231) was 1.6. The “isoTOP-ABPP reactivity ratio, P24752_C119” value (ACAT1 C119 (P24752); in-vitro_ramos) was 0.7 and the “isoTOP-ABPP reactivity ratio, P24752_C119” value (ACAT1 C119 (P24752); in-vitro_ramos_231) was 1.3.

In the case of `CC(Cl)C(=O)Nc1cc(C(F)(F)F)cc(C(F)(F)F)c1` (stereo not drawn) [compound 25], the “isoTOP-ABPP ratio (reactivity profile), Q9UPT9_C171” value (USP22 C171 (Q9UPT9); 500 μm in-vitro ramos_231) is reported as 1.1, the “isoTOP-ABPP ratio (reactivity profile), Q8TAQ2_C145” value (SMARCC2 C145 (Q8TAQ2); 500 μm in-vitro ramos_231) is reported as 0.9 and the “isoTOP-ABPP ratio (reactivity profile), Q14790_C360” value (CASP8 C360 (Q14790); 500 μm in-vitro ramos_231) is reported as 1.0. The “isoTOP-ABPP ratio (reactivity profile), P24752_C196” value (ACAT1 C196 (P24752); 500 μm in-vitro ramos_231) was 0.9, the “isoTOP-ABPP ratio (reactivity profile), P24752_C126” value (ACAT1 C126 (P24752); 500 μm in-vitro ramos_231) was 0.9 and the “isoTOP-ABPP ratio (reactivity profile), P24752_C413” value (ACAT1 C413 (P24752); 500 μm in-vitro ramos_231) was 1.0. The “isoTOP-ABPP ratio (reactivity profile), P24752_C119” value (ACAT1 C119 (P24752); 500 μm in-vitro ramos_231) was 1.0.
